Read-outs that look alike come from different tables or passages of the source.

The EC50 is the concentration needed to bring the measured effect to its halfway point.

In one series the test system is COS7 cells. As to conditions: uninfected COS7 cells, […].
Series [1] relates to human foreskin fibroblast (HFF) cells.
For series [2], the system named is AD169 strain of human cytomegalovirus. The experiment in a line: Antiviral effect in HFF cells infected with human cytomegalovirus (AD169).
A further series has as its system MT-2 cells. The experiment in a line: Cytotoxicity in MT-2 cells, flow cytometry cell counts and viability. It is filed as cell-based, human. Here is the method: (§1) MT-2 cells were incubated with drug for 72 hrs and harvested. Flow count beads (Beckman Coulter, Miami, Fla.) were added to the cell suspension followed by propidium iodide staining and analysis using flow cytometer and the 50% cytotoxic concentration (CC50) was calculated from the cell counts and viability.
On the technique in general: In flow cytometry, cells or beads pass a laser one at a time.

Series [3] concerns human foreskin fibroblast (HFF) cells. The experiment in a line: Cytotoxicity in HFF cells in parallel to HSV-2 assay. The conditions noted are these: HFF cells.
For series [4] the test system is unchanged. The experiment in a line: Cytotoxicity in HFF cells in parallel to HSV-1 assay. The conditions noted are these: HFF cells, in parallel to HSV-1 assay.
The test system is the same in series [5]. The conditions noted are these: uninfected HFF cells, […].
A further series has as its system HIV-1LAI. The experiment in a line: HIV antiviral assay in MT-2 cells, p24 reduction. The conditions noted are these: for Selectivity Index: CC50/EC50, MT-2 cells.
The test system of another series is HIV-192US727. The experiment in a line: Anti-HIV assay in human PBMC, supernatant reverse transcriptase activity.
The test system of series [6] is Human peripheral blood monocyte (PBMC).
The next series concerns HPV-11. The experiment in a line: HPV-11 origin replication in HEK 293 cells, qPCR. The conditions noted are these: for EC50: HPV-11 origin replication in HEK 293 cells, 48 hr, qPCR. It is filed as cell-based. The procedure: (§2) An origin-containing plasmid was co-transfected with HPV-11 E1 and E2 protein expression vectors into HEK 293 cells. At 4 hr post-transfection, cells were treated with compound dilutions and the cells were incubated for 48 hr. Replication of the virus origin was detected with DpnI and exonuclease III to remove unreplicated input bacterial plasmid DNA. Remaining replicated DNA was quantified by qPCR. Toxicity was determined by trypan blue exclusion.

The subject of series [7] is BK virus (Gardner strain). The experiment in a line: Antiviral effect in HFF cells infected with BK virus (Gardner strain), qPCR. A general note: Quantitative PCR measures a nucleic acid by following its amplification.
Series [8] deals with Copenhagen strain of vaccinia virus. Nature of the series: microbe, parasite or virus in culture. It counts as cell-based. As to conditions: HFF cells infected with vaccinia virus (Copenhagen), 7 days, crystal violet; read-out: EC50.
The subject of series [9] is human foreskin fibroblast (HFF) cells. The experiment in a line: Cytotoxicity in HFF cells in parallel to cytomegalovirus assay. The conditions noted are these: HFF cells, in parallel to cytomegalovirus assay.
For a further series, the system named is HEK 293 cells. Nature of the series: Toxicity in HEK 293 cells by trypan blue exclusion (HPV-11 example). It counts as cell-based. The procedure:
as §2

In a further series the test system is MAD-1 strain of JC virus. Nature of the series: Antiviral effect in JC virus (MAD-1) infected COS7 cells, qPCR.
The next series has as its system 2.2.15 cells. The experiment in a line: Cytotoxicity in 2.2.15 cells by neutral red uptake. As to conditions: 2.2.15 cells, neutral red uptake.
The test system of series [10] is Human peripheral blood monocyte (PBMC). The experiment in a line: Viability of PBMC by XTT reduction. The conditions noted are these: human PBMC, XTT reduction. On the technique in general: Tetrazolium dyes change colour on reduction, which living cells bring about.
Another series concerns Hepatitis B virus. Nature of the series: HBV replication in 2.2.15 cells, HBV DNA blot hybridization.
The conditions of series [11]: African green monkey.
The next series concerns Caski (HPV-16). Nature of the series: Antiproliferative activity, neutral red, Caski cervical cancer cells.
Another series is described as follows: in vitro. The conditions noted are these: human.
The test system of another series is HPV-18. The experiment in a line: Antiviral effect in HPV-18 infected primary human keratinocyte rafts, qPCR.
Series [12] can be described thus: Cytotoxicity in MT-2 cells, flow cytometry cell counts and viability. The conditions noted are these: human; MT-2 cells, 72 hrs. It is filed as cell-based, human. The procedure:
as §1

A short description of series [13]: Cytotoxicity in HFF cells in parallel to HSV-1 assay. As to conditions: human.
The nature of series [14]: Effect of oral compounds on body weight in Balb-c mice. It is filed as in vivo. The procedure:
Compounds were administered at the indicated doses by oral gavage daily for 5 days. Weights measured before and on day 6 after 5 doses.

The conditions of series [15]: human.
Another series relates to HPV-16. Nature of the series: HPV-16 origin replication in HEK 293 cells, qPCR. It counts as cell-based. Here is the method: (§3) An origin-containing plasmid was co-transfected with HPV-16 E1 and E2 protein expression vectors into HEK 293 cells. At 4 hr post-transfection, cells were treated with compound dilutions and the cells were incubated for 48 hr. Replication of the virus origin was detected with DpnI and exonuclease III to remove unreplicated input bacterial plasmid DNA. Remaining replicated DNA was quantified by qPCR. Toxicity was determined by trypan blue exclusion.

A short description of series [16]: Cytotoxicity in 2.2.15 cells by neutral red uptake. As to conditions: human.
Series [17] is described as follows: Toxicity in primary human keratinocyte raft cultures by histology.
A short description of series [18]: Cytotoxicity in HFF cells in parallel to cytomegalovirus assay. As to conditions: human.
A short description of series [19]: Toxicity in HEK 293 cells by trypan blue exclusion (HPV-16 example). As to conditions: human. It is filed as cell-based. Here is the method: as §3
The next series has as its system Hela (HPV-18). Nature of the series: Antiproliferative activity, neutral red, Hela cervical cancer cells. The conditions noted are these: Homo sapiens, 96 h, read-out: Cytotoxic concentration 50% (CC50) Hela (HPV-18).
A short description of series [20]: Toxicity in HEK 293 cells by trypan blue exclusion (HPV-11 example). It is filed as cell-based. The conditions noted are these: human. Here is the method:
as §2

Series [21] in a line: Antiproliferative activity, neutral red, normal human fibroblasts.
Where [22] appears, read: HFF cells infected with human cytomegalovirus (AD169), 14 days, crystal violet.
The mark [23] stands for this setting: MT-2 cells, 72 hrs, read-out: CC50.
Where [24] appears, read: HIV-1 infected MT-2 cells, p24 reduction, four days.
The mark [25] stands for this setting: HFF cells infected with BK virus (Gardner strain), 14 days, qPCR.
Setting [26] is: COS7 cells infected with JC virus (MAD-1), 7 days, qPCR.
The mark [27] stands for this setting: HIV-192US727 infected human PBMC, 7 days, supernatant reverse transcriptase activity.

With `CCCCCCCCCCCCCCCCCCOC[C@H](COP(=O)(CO[C@H](CO)Cn1cnc2c(N)ncnc21)OCc1ccccc1)OCc1ccccc1` (stereo partly drawn) [Compound 230, benzyl 1-O-octadecyl-2-O-benzyl-sn-glyceryl 9-(S)-[(3-hydroxypropyl-2-phosphonomethoxy)propyl]adenine], the CC50 was 18.4 µM in the series with COS7 cells; 97.5 µM in series [1]; 19 ± 2.6 µM in the series on MT-2 cells (setting [23]); 37.1 µM in [3]; 82.2 µM in series [4]; 19.6 µM in series [5]. The values for the CC50 (in series [6]; in [9]; in the series on HEK 293 cells) were 0.55 µM, 3.72 µM and over 10 µM, respectively. Besides, the EC50 in [2] (setting [22]) was under 0.03 µM; in the series with HIV-1LAI (setting [24]), 50 ± 30 nM; in the series with HIV-192US727 it was under 0.1 µM; in the series on HPV-11 it was 0.56 µM; in series [7] (setting [25]) it was 0.06 µM; in [8], 0.06 µM. In the series on MAD-1 strain of JC virus (setting [26]), this compound displayed an EC50 of over 4 µM. In addition, the “Selectivity Index” value in the series with HIV-1LAI is 380.

For the compound `CCCCCCCCCCCCCCCCCCOCCOP(=O)(CO[C@H](C)Cn1cnc2c(N)ncnc21)Oc1ccccc1` (stereo partly drawn) [Compound 92, phenyl octadecyloxyethyl 9-(R)-[(2-phosphonomethoxy)propyl]adenine], the EC50 with HIV-192US727 (setting [27]) was under 0.005 µM; with Hepatitis B virus (HBV replication in 2.2.15 cells, 7 days treatment, HBV DNA blot hybridization), 7.3 µM. The CC50 in the series on 2.2.15 cells was 68 µM; in series [10] it was 24.1 µM.

Take `CCCCCCCCCCCCCCCCCCOC[C@H](COP(=O)(CO[C@H](CO)Cn1ccc(N)nc1=O)OCc1ccccc1)OCc1ccccc1` (stereo partly drawn) [Compound 231, benzyl 1-O-octadecyl-2-O-benzyl-sn-glyceryl 1-(S)-[3-hydroxy-2-(phosphonomethoxy)propyl]cytosine]: the CC50 in the series with COS7 cells was 62.6 µM; in series [1], over 100 µM; in the series on MT-2 cells (setting [23]), 22 ± 3 µM; in [3], 34.8 µM; in series [4], 88.3 µM; in series [5], 13.3 µM. Further, the figures for the CC50 (in [10]; in [9]; with HEK 293 cells) were 19 µM, 19 µM and over 10 µM, respectively. In addition, the EC50 was under 0.03 µM in [2] (setting [22]); 2200 ± 2100 nM with HIV-1LAI (setting [24]); under 0.3 µM with HIV-192US727 (setting [27]); 1.56 µM in the series with HPV-11; under 0.03 µM in series [7] (setting [25]); 0.23 µM in series [8]. In addition, the EC50 in the series with MAD-1 strain of JC virus (setting [26]) is over 20 µM. For the same compound, in the series with HIV-1LAI, the “Selectivity Index” value was determined as 10.

In the case of `CCCCCCCCCCCCCCCCCCOCCOP(=O)(COCCn1cnc2c(=O)[nH]c(N)nc21)OCc1ccccc1` (racemic) [Compound 1, benzyl octadecyloxyethyl 9-(2-phosphonomethoxyethyl)guanine], the CC50 at 7 days in [11] was 63.8 µM; in series [16], over 100 µM. Further, the CC50 in the series on Caski (HPV-16) (Homo sapiens, Ca-Ski, 96 h, read-out: Cytotoxic concentration 50% (CC50) Caski (HPV-16)) was 0.004 µM; in the series “in vitro”, 0.04 µM; in the series on MT-2 cells (Homo sapiens, MT2, 72 h, read-out: CC50, 50% Cytotoxic concentration MT2 cells T cell leukemia), 0.036 ± 0.04 µM; in series [17] it was 10 µM; in [19], over 10 µM; in the series on Hela (HPV-18) it was 0.009 µM. The “fold more effective in reducing viable cell number in the cervical cancer lines than in normal, non-transformed human fibroblasts” value with Caski (HPV-16) (cervical cancer lines (Caski, Hela) vs HFF) was 3,750 fold. Further, the “Selectivity Index” value with HPV-18 (HPV-18 keratinocyte rafts) is 48; in [2] (human cytomegalovirus (AD169), HFF cells), over 1717; in the series on HIV-1LAI it was over 3600; in the series with HIV-192US727 (HIV-192US727, human PBMC), over 4.0; in the series on HPV-16 (HPV-16, HEK 293 cells), over 50; in the series with HPV-11 (HPV-11, HEK 293 cells) it was over 204. In addition, the “Selectivity Index” value in series [7] (BK virus (Gardner strain), HFF cells) is given as over 102; with Hepatitis B virus (hepatitis B virus, 2.2.15 cells) it was over 226; in the series on MAD-1 strain of JC virus (JC virus (MAD-1), COS7 cells) it was 911. The EC50 in the series with HPV-18 (Homo sapiens, Keratinocyte) was 0.21 µM; in series [2] (Human betaherpesvirus 5, AD169, HFF, 336 h), under 0.03 µM; with HIV-1LAI (Human immunodeficiency virus 1, MT2, 96 h), under 0.01 nM; in the series on HIV-192US727 (Human immunodeficiency virus 1, PBMC, 168 h), under 0.01 µM; with HPV-16 (HEK293, HPV-16 origin replication in HEK 293 cells, 48 hr, qPCR, read-out: EC50), 0.2 µM; in the series with HPV-11 (HEK293) it was 0.49 µM. Also, the EC50 in [7] (Betapolyomavirus hominis, HFF, 336 h) was under 0.03 µM; in the series on Hepatitis B virus (Hepatitis B virus, 168 h), 0.44 µM; in the series on MAD-1 strain of JC virus (JC polyomavirus, COS-7, 168 h) it was 0.07 µM. Moreover, the CC50 at 72 h in series [12] worked out at 0.036 ± 0.04 µM. Further, the CC50 at 3 days in [13] is over 100 µM. For the same compound, in series [14] (4 mg/kg/day oral gavage daily for 5 days), the “body weight Day 6” value was 18.42 ± 1.00 (3). Besides, in series [14] (4 mg/kg/day oral gavage, before dosing), the “body weight Day 0” value was 18.63 ± 0.728 (3). Also, the CC50 at 14 days came to 3.06 µM in series [15] and 51.5 µM in series [18]. The compound further displayed a CC50 at 48 h in [20] of over 100 µM. This compound returned a CC50 at 4 days in series [21] of 15 µM.

For the origin of these results see patent US10076533B2, “Acyclic nucleoside phosphonate diesters” (The Regents of the University of California, priority 2013, dated 2018).
